Laboratory results: publication PMC10780244, “Antileishmanial Effect of 1,5- and 1,8-Substituted Fused Naphthyridines” (Molecules, 2023)

System: axenic iRFP-L. infantum amastigotes from bone marrow cells
Assay: Axenic amastigote viability assay (iRFP fluorescence, first screening)
Type: cell-based
Conditions: Leishmania infantum, Bone marrow cell, cut-off 25 µM, 72 h, read-out: Axenic Amastigotes (concentration with inhibition)
Description: (§1) The 1,5- and 1,8-fused naphthyridine derivatives were evaluated as antileishmanial agents in assays using two forms of L. infantum amastigotes: axenic amastigotes recovered from bone marrow cells of infected BALB/c mice and intramacrophagic amastigotes obtained from splenic explants of the same subjects. The L. infantum strain used is a genetically modified strain previously engineered by our group to constitutively express the infrared protein iRFP from Rhodopseudomonas palustris bacteriophytochrome (iRFP L. infantum). This strain allows monitoring the viability of both forms of the parasite by quantifying the fluorescence emitted at 700 nm by the iRFP protein produced by living amastigotes.
(§2) Amastigotes obtained from mouse bone marrow cells were used to perform a first screening with the complete series of fused 1,5- and 1,8-naphthyridines. […] The toxicity of these selected compounds was assessed in non-infected splenic cells and the cytotoxic concentration (CC50) value obtained was used to calculate the selective index (SI). The oral tolerability of these same compounds was tested by calculating the viability of murine intestinal organoids exposed to two concentrations (50 and 25 µM).
To obtain iRFP-L. infantum axenic amastigotes, femur and tibia were carefully cut at both ends, and marrow cells were removed by passing PBS through the medullary cavity with a 29G needle. The bone marrow cell suspension was filtered through a 100 µm cell strainer and centrifuged at 3500× g for 10 min at room temperature. After centrifugation, cells were resuspended in amastigote culture medium: 15 mM KCl; 136 mM KH2PO4; 10 mM K2HPO4·3H2O; 0.5 mM MgSO4. 7H2O; 24 mM NaHCO3; 22 mM glucose; 1 mM glutamine, 1xRPMI 1640 vitamin mix (Sigma-Aldrich, Merck, Darmstadt, Germany), 10 mM folic acid, 100 mM adenosine, 1xRPMI amino acid mix (Sigma-Aldrich, Merck, Darmstadt, Germany), 5 mg/mL hemin, antibiotic cocktail, 25 mM MES and 10% FBS, and incubated at 37 °C.
To test the antileishmanial effect of naphthyridines on axenic amastigotes, 40 μL of a suspension containing 3 × 10^4 iRFP-L. infantum parasites per well were incubated with another 40 μL of the drugs dilutions in amastigote culture medium with 7.5% FBS. Incubations were performed in 384-well black microtiter plates with an optical bottom at 37 °C and 5% CO2 for 72 h. Solutions of 0.1% (v/v) DMSO and 10 μM AMB were used as negative and positive controls, respectively. The assays were performed by triplicate.
(§3) The viability of axenic and intramacrophage amastigotes was calculated measuring the fluorescence emitted at 700 nm by the iRFP protein from live parasites and recorded by an Odyssey infrared imaging system (Li-Cor, NE, USA). The fluorescence emitted by the negative control wells was considered 100% viability, whereas the fluorescence emitted by the positive control wells, was adjusted to 0% viability.

| Compound | minimal effective concentration [µM] |
| --- | --- |
| COc1ccc2nc3c(c(-c4ccccc4)c2n1)COc1ccccc1-3 [Compound 5c] | > 25 |
| c1ccc([C@@H]2c3cccnc3NC3c4ccccc4OCC32)cc1 (stereo partly shown) [Compound 10a] | > 25 |
| c1ccc(-c2c3c(nc4cccnc24)-c2ccccc2OC3)cc1 [Compound 5a] | > 25 |
| O=C1Oc2ccccc2C2Nc3ncccc3[C@@H](c3ccccc3)C12 (stereo partly shown) [Compound 12a] | > 25 |
| Cc1ccc(S(=O)(=O)N2Cc3c(nc4cccnc4c3-c3ccccc3)-c3ccccc32)cc1 [Compound 9a] | > 25 |
| COc1ccc2c(n1)[C@@H](c1ccccc1)C1C(=O)Oc3ccccc3C1N2 (stereo partly shown) [Compound 6c] | > 25 |
| O=C1Oc2ccccc2C2Nc3cccnc3[C@@H](c3ccccc3)C12 (stereo partly shown) [Compound 6a] | > 25 |
| COc1ccc(-c2c3c(nc4ncccc24)-c2ccccc2OC3)cc1 [Compound 11c] | > 25 |
| Cc1ccc2c(c1)C1Nc3ncccc3[C@@H](c3ccccc3)C1CO2 (stereo partly shown) [Compound 10c] | > 25 |
| O=C1Oc2ccccc2C2Nc3ncc(Br)cc3[C@@H](c3ccccc3)C12 (stereo partly shown) [Compound 12b] | > 25 |
| COc1ccc2c(n1)[C@@H](c1ccccc1)C1COc3ccccc3C1N2 (stereo partly shown) [Compound 4c] | > 25 |
| Brc1ccc2nc3c(c(-c4ccccc4)c2n1)COc1ccccc1-3 [Compound 5b] | > 25 |
| c1ccc([C@@H]2c3ncccc3NC3c4ccccc4OCC32)cc1 (stereo partly shown) [Compound 4a] | > 25 |
| COc1ccc2nc3c(c(-c4ccccc4)c2n1)CN(S(=O)(=O)c1ccc(C)cc1)c1ccccc1-3 [Compound 9c] | > 25 |
| Fc1ccc2c(c1)-c1nc3ncccc3c(-c3ccccc3)c1CO2 [Compound 11b] | > 25 |
| Cc1ccc(S(=O)(=O)N2Cc3c(nc4ncccc4c3-c3ccccc3)-c3ccccc32)cc1 [Compound 15a] | < 25 |
| Cc1ccc(S(=O)(=O)N2Cc3c(nc4ccc(Br)nc4c3-c3ccccc3)-c3ccccc32)cc1 [Compound 9d] | > 25 |
| O=c1oc2ccccc2c2nc3ccc(Br)nc3c(-c3ccccc3)c12 [Compound 7b] | > 25 |
| O=c1oc2ccc(F)cc2c2nc3ncccc3c(-c3ccccc3)c12 [Compound 13c] | > 25 |
| O=c1oc2ccccc2c2nc3cccnc3c(-c3ccccc3)c12 [Compound 7a] | > 25 |

System: intramacrophagic iRFP-L. infantum amastigotes from murine spleens
Assay: Ex vivo intramacrophagic amastigote viability assay (iRFP fluorescence)
Type: cell-based, Leishmania infantum
Conditions: Leishmania infantum; ex vivo murine splenic explants, 72 h; read-out: Intracellular Amastigotes EC50
Description: as §1, §2
Intramacrophagic amastigotes were obtained by cutting spleens into small pieces that were incubated for 25 min with 0.5 mL of collagenase D (2 mg/mL) (Merck, Darmstadt, Germany) dissolved in 4.5 mL buffer (10 mM HEPES, pH 7.4, 150 mM NaCl, 5 mM KCl, 1 mM MgCl2 and 1.8 mM CaCl2). The cell suspension was filtered through a 100 µm cell strainer. After erythrocyte lysis (150 mM NH4Cl, 1 mM KHCO3, 0.1 mM EDTA), splenocytes were centrifuged three times at 500× g for 7 min at 4 °C, with PBS washes between each centrifugation. The splenocyte suspension containing intramacrophagic amastigotes was resuspended in RPMI medium (Gibco, Fisher Scientific, Waltham, MA, USA) supplemented with 20% FBS, 1 mM sodium pyruvate, 24 mM NaHCO3, 2 mM L-glutamine, 1× RPMI vitamins, 25 mM HEPES and antibiotic cocktail.
For the ex vivo intramacrophagic amastigote assay, 40 μL of one-half or one-third serial dilutions of each diluted in supplemented RPMI medium, were added to black 384-well optical-bottom black plates containing 40 μL of murine splenocytes obtained as described above. Positive controls (containing 10 μM of AMB) and negative controls (containing 0.1% v/v DMSO) were included. The plates were incubated at 37 °C and 5% CO2, for a maximum period of 72 h and the assays were performed by triplicate.
as §3
Fluorescence emitted by intramacrophage amastigotes were plotted against the drug concentration using the nonlinear fit analysis provided by the Sigma Plot 10.1 statistical package to obtain EC50 values.

| Compound | EC50 [µM] |
| --- | --- |
| c1ccc([C@@H]2c3cccnc3NC3c4ccccc4OCC32)cc1 (stereo partly shown) [Compound 10a] | > 20 |
| O=C1Oc2ccccc2C2Nc3ncccc3[C@@H](c3ccccc3)C12 (stereo partly shown) [Compound 12a] | > 20 |
| COc1ccc(-c2c3c(nc4ncccc24)-c2ccccc2OC3)cc1 [Compound 11c] | > 20 |
| Cc1ccc2c(c1)C1Nc3ncccc3[C@@H](c3ccccc3)C1CO2 (stereo partly shown) [Compound 10c] | > 20 |
| O=C1Oc2ccccc2C2Nc3ncc(Br)cc3[C@@H](c3ccccc3)C12 (stereo partly shown) [Compound 12b] | > 20 |
| COc1ccc2nc3c(c(-c4ccccc4)c2n1)CN(S(=O)(=O)c1ccc(C)cc1)c1ccccc1-3 [Compound 9c] | > 20 |
| Fc1ccc2c(c1)-c1nc3ncccc3c(-c3ccccc3)c1CO2 [Compound 11b] | > 20 |
| Cc1ccc(S(=O)(=O)N2Cc3c(nc4ncccc4c3-c3ccccc3)-c3ccccc32)cc1 [Compound 15a] | 67.4 ± 9.78 |
| Cc1ccc(S(=O)(=O)N2Cc3c(nc4ccc(Br)nc4c3-c3ccccc3)-c3ccccc32)cc1 [Compound 9d] | > 20 |
| O=c1oc2ccc(F)cc2c2nc3ncccc3c(-c3ccccc3)c12 [Compound 13c] | > 20 |

Same assay, conditions: ratio CC50 (splenic macrophages) / EC50 (intramacrophagic amastigotes)

| Compound | SI |
| --- | --- |
| Cc1ccc(S(=O)(=O)N2Cc3c(nc4ncccc4c3-c3ccccc3)-c3ccccc32)cc1 [Compound 15a] | 0.1 |

Same assay, conditions: summary in discussion

| Compound | antileishmanial activity against Leishmania amastigotes (in words) |
| --- | --- |
| c1ccc([C@@H]2c3cccnc3NC3c4ccccc4OCC32)cc1 (stereo partly shown) [Compound 10a] | not effective against Leishmania amastigotes |
| Cc1ccc(S(=O)(=O)N2Cc3c(nc4ncccc4c3-c3ccccc3)-c3ccccc32)cc1 [Compound 15a] | significant antileishmanial activity |

System: not listed separately
Assay: Cytotoxicity in uninfected murine splenic cells (alamarBlue)
Type: cell-based, mouse
Conditions: mouse; uninfected splenic cells, 72 h, alamarBlue; read-out: Mouse Splenic Macrophages CC50
Description: (§4) Amastigotes obtained from mouse bone marrow cells were used to perform a first screening with the complete series of fused 1,5- and 1,8-naphthyridines. […] The toxicity of these selected compounds was assessed in non-infected splenic cells and the cytotoxic concentration (CC50) value obtained was used to calculate the selective index (SI). The oral tolerability of these same compounds was tested by calculating the viability of murine intestinal organoids exposed to two concentrations (50 and 25 µM). In order to assess the in vitro safety of the naphthyridines, cytotoxicity assays were carried out in ex vivo splenic explants from uninfected mice, which were prepared as previously described to obtain intramacrophagic amastigotes. Cells were seeded at a density of 1 × 10^6 cells per well in 96-well plates containing the prediluted compounds and incubated at 37 °C and 5% CO2 during 72 h. AlamarBlue assay (Invitrogen, Fisher Scientific, Waltham, MA, USA) was used to estimate cell viability following manufacturer’s recommendations. The assays were performed by triplicate. Absorbance of viable cells vs. compound concentrations were fitted by nonlinear analysis using the Sigma Plot 10.1 statistical package to calculate the cytotoxic concentration 50 (CC50) values. Selectivity index (SI) was calculated as the ratio between CC50 and the EC50 values of intramacrophagic amastigotes.

| Compound | CC50 at 72 h [µM] |
| --- | --- |
| Cc1ccc(S(=O)(=O)N2Cc3c(nc4ncccc4c3-c3ccccc3)-c3ccccc32)cc1 [Compound 15a] | 8.78 ± 2.21 |

System: mouse splenic macrophages
Assay: as above
Type: cell-based
Conditions: summary in discussion
Description: as §4

| Compound | toxicity (in words) |
| --- | --- |
| Cc1ccc(S(=O)(=O)N2Cc3c(nc4ncccc4c3-c3ccccc3)-c3ccccc32)cc1 [Compound 15a] | significant toxicity |

System: leishmanial DNA topoisomerase IB (LdTopIB)
Assay: Relaxation of supercoiled plasmid DNA assay
Type: biochemical, Leishmania
Conditions: 100 μM of compounds, 1 min at 37 °C, in words
Description: page 2: DNA DMSO 6b8a8b8c9b10b11a13a13b14a7c8d15b Relaxationof supercoiled plasmid DNA assay. Each reaction contains one unit of purified leishmanial DNA topisomeraseIB enzyme (LdTopIB), 100 μM ofcompounds, 0.5μg of supercoiled […], 10 mM Tris-HCl buffer pH 7.5, 5 mM MgCl 2, 0.1 mM EDTA, 15 μg/mL bovine serum albumin, 150 mM KCl. Reaction mixtures were incubated 1 min at 37 °C and stopped by the addition of 4 μL loading buffer (5% sarkosyl, 0.12% bromophenol blue, 25% glycerol). The topoisomerswere resolved in 1% agarose gels by electrophoresis in 0.1 M Tris borate EDTA buffer (pH 8.0) at 2 V/cm for 16 h and visualized with UV illumination after ethidium bromide (0.5μg/mL) staining. […]

| Compound | LdTopIB inhibitory activity |
| --- | --- |
| Cc1ccc(S(=O)(=O)N2Cc3c(nc4ncccc4c3-c3ccccc3)-c3ccccc32)cc1 [Compound 15a] | did not show leishmanial DNA topoisomerase IB (LdTopIB) inhibitory activity |

System: recombinant human DNA topoisomerase IB (hTopIB)
Assay: not given
Set-up: method as in PMID 31229877, PMID 32279049, PMID 33962152; dose or concentration left out as unconfirmed
Conditions: cited from earlier work

| Compound | inhibitory effect on DNA relaxation activity of hTopIB |
| --- | --- |
| c1ccc([C@@H]2c3cccnc3NC3c4ccccc4OCC32)cc1 (stereo partly shown) [Compound 10a] | had an inhibitory effect on DNA relaxation activity |
| Cc1ccc(S(=O)(=O)N2Cc3c(nc4ncccc4c3-c3ccccc3)-c3ccccc32)cc1 [Compound 15a] | had an inhibitory effect on DNA relaxation activity |

System: two cancer cell lines
Assay: not given
Set-up: method as in PMID 31229877, PMID 32279049, PMID 33962152
Conditions: cited from earlier work

| Compound | cytotoxic effects on two cancer cell lines (concentration range) [µM] |
| --- | --- |
| c1ccc([C@@H]2c3cccnc3NC3c4ccccc4OCC32)cc1 (stereo partly shown) [Compound 10a] | 1 to 15 |
| Cc1ccc(S(=O)(=O)N2Cc3c(nc4ncccc4c3-c3ccccc3)-c3ccccc32)cc1 [Compound 15a] | 1 to 15 |
